The source of these data is ChEMBL document CHEMBL1144946, “4-Amino-2-(aryl)-butylbenzamides and Their conformationally constrained analogues. Potent antagonists of the human neurokinin-2 (NK(2)) receptor” (Bioorg Med Chem Lett, 2003).

What is called pIC50 is −log10 of the IC50, conventionally taken in molar units. The low end stands for a large IC50, the high end for a small IC50. The inhibition is the drop in the measured response relative to a control, in per cent. Lower therefore signals little suppression.

The target of assay [1] is T1, Substance-K receptor (Homo sapiens, UniProt P21452).
T1 sequence (P21452 whole entry): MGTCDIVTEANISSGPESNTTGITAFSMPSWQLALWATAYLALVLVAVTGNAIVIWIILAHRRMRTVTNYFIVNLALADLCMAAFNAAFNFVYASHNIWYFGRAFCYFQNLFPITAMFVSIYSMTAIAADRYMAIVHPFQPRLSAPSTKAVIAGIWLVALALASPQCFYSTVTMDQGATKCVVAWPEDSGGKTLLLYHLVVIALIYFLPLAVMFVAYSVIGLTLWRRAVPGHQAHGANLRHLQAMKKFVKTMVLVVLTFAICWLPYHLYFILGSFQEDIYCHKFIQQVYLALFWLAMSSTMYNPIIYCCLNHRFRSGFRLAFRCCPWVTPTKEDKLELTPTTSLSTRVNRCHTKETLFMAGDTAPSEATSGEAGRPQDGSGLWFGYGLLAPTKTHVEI
The assay can be described thus: Binding affinity for human tachykinin receptor 2 expressed in CHO cells using [125I]- NKA radioligand. The class given is cell-based.

The species named for the next assay is Oryctolagus cuniculus. The assay can be described thus: Ability to antagonise the contractile effects of the selective NK2 receptor agonist [B-ala8]NKA in the rabbit pulmonary artery (RPA). Format: functional. Conditions: read-out: pA2 (converted).
The target in assay [2] is T1, Substance-K receptor. The assay can be described thus: Binding affinity towards human Tachykinin receptor 2 using [125I]- NKA radioligand expressed in CHO cells. Format: cell-based.
For assay [3], the target named is T2, Substance-K receptor (Rattus norvegicus) (UniProt P16610).
T2 sequence (whole entry): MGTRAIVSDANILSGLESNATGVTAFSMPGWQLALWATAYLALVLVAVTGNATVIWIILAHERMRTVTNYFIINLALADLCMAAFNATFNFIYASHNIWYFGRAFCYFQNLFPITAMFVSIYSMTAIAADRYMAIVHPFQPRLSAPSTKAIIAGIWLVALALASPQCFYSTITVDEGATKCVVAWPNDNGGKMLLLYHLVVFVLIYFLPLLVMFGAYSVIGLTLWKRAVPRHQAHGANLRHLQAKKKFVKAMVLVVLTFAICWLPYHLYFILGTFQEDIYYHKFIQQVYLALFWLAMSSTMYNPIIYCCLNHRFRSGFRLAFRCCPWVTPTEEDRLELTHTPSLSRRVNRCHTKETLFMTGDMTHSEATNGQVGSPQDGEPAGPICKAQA
The assay can be described thus: Binding affinity towards […] using [125I]- NKA radioligand expressed in rat duodenum at 100 nM.

The structures appear in SMILES notation. Bounds are passed on as bounds.

In turn, `CN(CC(CCN1CCC(n2c(O)nc3ccccc32)C1)c1ccc(Cl)c(Cl)c1)C(=O)c1ccccc1` (stereo not given) registered a pIC50 at Substance-K receptor [1] of 7.4.

For the compound `CN(CC(CCN1CCC(c2ccccc2)CC1)c1ccc(Cl)c(Cl)c1)C(=O)c1ccccc1` (stereo not given), the pIC50 on Substance-K receptor [1] is less than 7.

Turning to `COc1ccccc1C(=O)N1CCCC(CCN2CC(N3CCOCC3)C2)(c2ccc(Cl)c(Cl)c2)C1` (stereo not given), the Kb in the assay listed under Oryctolagus cuniculus was 20 nM.

Turning to `CN(CC(CCN1CCCC(n2c(O)nc3ccccc32)CC1)c1ccc(Cl)c(Cl)c1)C(=O)c1ccccc1` (stereo not given), the Kb in the assay listed under Oryctolagus cuniculus was 3.98 nM. The pIC50 at Substance-K receptor [1] is 8.4.

In the case of `CC(=O)NC1(c2ccccc2)CCN(CCC(CN(C)C(=O)c2ccccc2)c2ccc(Cl)c(Cl)c2)CC1` (stereo not given), the Kb in the assay listed under Oryctolagus cuniculus is 0.794 nM. On Substance-K receptor [2], the pIC50 was 8.9.

`CCN(CC)C(=O)C1CCCN(CCC(CN(C)C(=O)c2ccccc2)c2ccc(Cl)c(Cl)c2)C1` (stereo not given) returned an inhibition in assay [3] of 61%.

In the case of `CN(CC(CCN1CCC(n2cnc3ccccc32)CC1)c1ccc(Cl)c(Cl)c1)C(=O)c1ccccc1` (stereo not given), the Kb in the assay filed under Oryctolagus cuniculus was 2.51 nM. Also, the pIC50 on Substance-K receptor [1] was 8.1.

In the case of `CN(CC(CCN1CC(N2CCOCC2)C1)c1ccc(Cl)c(Cl)c1)C(=O)c1ccccc1` (stereo not given), the Kb in the assay filed under Oryctolagus cuniculus was 1.26 nM. At Substance-K receptor [1], this compound came in with a negative logarithm of the IC50 (pIC50) of 7.7.

Compound `O=C(c1ccccc1)N1CCC(CCN2CC(N3CCOCC3)C2)(c2ccc(Cl)c(Cl)c2)C1` (stereo not given) displayed a pIC50 on Substance-K receptor [1] of 7.5.

`O=C(CC1CC1)N1CCC(CCN2CC(N3CCOCC3)C2)(c2ccc(Cl)c(Cl)c2)C1` (stereo not given): the pIC50 at Substance-K receptor [1] came to 6.3.

Regarding `CN(CC(CCN1CCC(O)(c2ccccc2)CC1)c1ccc(Cl)c(Cl)c1)C(=O)c1ccccc1` (stereo not given), in the assay filed under Oryctolagus cuniculus, the Kb was 0.316 nM. For the same compound, at Substance-K receptor [1], the pIC50 was 8.9.

Regarding `CN(CC(CCN1CCC(n2c(O)nc3ccccc32)CC1)c1ccc(Cl)c(Cl)c1)C(=O)c1ccccc1` (stereo not given), the inhibition in assay [3] turned out to be 81%. For the same compound, in the assay listed under Oryctolagus cuniculus, the Kb was 3.98 nM. On Substance-K receptor [1], this compound gave a negative logarithm of the IC50 (pIC50) of 8.9.

In the case of `CN(CC(CCN1CCC(n2ccnc2)CC1)c1ccc(Cl)c(Cl)c1)C(=O)c1ccccc1` (stereo not given), the Kb in the assay listed under Oryctolagus cuniculus was 5.01 nM. For the same compound, the pIC50 at Substance-K receptor [1] came out at 7.7.

In turn, `CN(CC(CCN1CCCCC1)c1ccc(Cl)c(Cl)c1)C(=O)c1ccccc1` (stereo not given) gave a pIC50 at Substance-K receptor [1] of 6.3.

`CN(CC(CCN1CCC(c2nc3ccccc3[nH]2)CC1)c1ccc(Cl)c(Cl)c1)C(=O)c1ccccc1` (stereo not given): the Kb in the assay listed under Oryctolagus cuniculus is 50.1 nM. This compound also displayed a negative-log IC50 (pIC50) on Substance-K receptor [1] of 7.3.

`O=C(c1ccccc1)N1CC(CCN2CC(N3CCOCC3)C2)(c2ccc(Cl)c(Cl)c2)C1`: in the assay filed under Oryctolagus cuniculus, the Kb was 7.94 nM. The compound also returned a negative-log IC50 (pIC50) on Substance-K receptor [1] of 7.2.

`CN(CC(CCN1CCC(O)(c2ncc[nH]2)CC1)c1ccc(Cl)c(Cl)c1)C(=O)c1ccccc1` (stereo not given) had a negative-log IC50 (pIC50) on Substance-K receptor [1] of 6.6.

Turning to `O=S(=O)(c1ccccc1)N1CCC(CCN2CC(N3CCOCC3)C2)(c2ccc(Cl)c(Cl)c2)C1` (stereo not given), in the assay listed under Oryctolagus cuniculus, the Kb was 63.1 nM. The compound further showed a pIC50 at Substance-K receptor [1] of 6.7.

As for `CN(CC(CCN1CCC(n2cncn2)CC1)c1ccc(Cl)c(Cl)c1)C(=O)c1ccccc1` (stereo not given), in the assay listed under Oryctolagus cuniculus, the Kb is 79.4 nM. The negative logarithm of the IC50 (pIC50) on Substance-K receptor [1] came out at 6.8.

For `CN(CC(CCN1CCC(O)CC1)c1ccc(Cl)c(Cl)c1)C(=O)c1ccccc1` (stereo not given), the pIC50 on Substance-K receptor [1] came out at 6.4.

`CN(CC(CCN1CC(n2ccnc2)C1)c1ccc(Cl)c(Cl)c1)C(=O)c1ccccc1` (stereo not given): the Kb in the assay filed under Oryctolagus cuniculus was 25.1 nM. The compound also gave a negative-log IC50 (pIC50) on Substance-K receptor [1] of 6.8.

At Substance-K receptor [1], `CN(CC(CCN1CCCC(n2c(=O)[nH]c3ccccc32)C1)c1ccc(Cl)c(Cl)c1)C(=O)c1ccccc1` (stereo not given) yielded a negative-log IC50 (pIC50) of 7.1.
